Key:
[1] = system: Ctenocephalides felis (cat flea); assay: Activity in vitro against Ctenocephalides felis (cat flea), artificial blood feeding system; details: at 100 ppm; adult fleas fed on treated blood for 24 hours
Experimental: 2. Activity In Vitro Against Ctenocephalides felis (Cat Flea). A mixed adult population of fleas is placed in a suitably formatted 96-well plate allowing fleas to access and feed on treated blood via an artificial feeding system. Each compound is tested by serial dilution in order to determine its MED. Fleas are fed on treated blood for 24 hours, after which the compound's effect is recorded. Insecticidal activity is determined on the basis of the number of dead fleas recovered from the feeding system.

[2] = system: Rhipicephalus sanguineus (dog tick); assay: Activity in vitro against Rhipicephalus sanguineus (dog tick), adult tick contact test in 96-well plate; details: at 640 ppm, 10 minutes contact, incubated 7 days at 28° C. and 80% relative humidity
Experimental: 1. Activity In Vitro Against Rhipicephalus sanguineus (Dog Tick).
A clean adult tick population is used to seed a suitably formatted 96-well plate containing the test substances to be evaluated for antiparasitic activity. Each compound is tested by serial dilution in order to determine its minimal effective dose (MED). Ticks are left in contact with the test compound for 10 minutes and are then incubated at 28° C. and 80% relative humidity for 7 days, during which the test compound's effect is monitored. Acaricidal activity is confirmed if adult ticks are dead.

CC(O)(c1cn(-c2c(Cl)cc(C(F)(F)F)cc2Cl)c2cccnc12)C(F)(F)F (centres unmarked) [Compound 1.43, 2-[1-(2,6-Dichloro-4-trifluoromethyl-phenyl)-1H-pyrrolo[3,2-b]pyridin-3-yl]-1,1,1-trifluoro-propan-2-ol]
efficacy (insecticidal activity, dead fleas) [1]: more than 80% | efficacy (acaricidal activity, dead adult ticks) [2]: more than 80%

Source: patent US20110021543A1, “HETEROCYCLIC COMPOUNDS AND THEIR USE AS PESTICIDES” (priority 2007, published 2011)
